Experiments:
AMPK [1] = assay: AMPK activation assay (western blot phospho-AMPK Thr172) in 3T3-L1; type: cell-based, mouse; conditions: 3T3-L1 cells, 30 min treatment
Procedure: (§1) Effects of compounds on AMPK activation were analyzed in mouse muscle cell C2C12, mouse fibroblast 3T3-L1 and human hepatocyte Hep G2. Those cell lines were cultured in high-glucose Dulbecco's modified Eagle's medium (DMEM) containing 10% fetal bovine serum (FBS), 4 mM L-glutamine, 2 mM sodium pyruvate and 1% penicillin/streptomycin (Invitrogen GibcoBRL, Carlsbad, Calif., USA) at 37° C. under 5% CO2. Cells were plated at 3×10^5 per well (6-well plate). 24 h after plating, cells were treated with indicated compounds for 30 min followed by cell lysis and western blot analysis. Equal amount of protein were separated by SDS-PAGE and then electroblotted on to PVDF membranes. Membranes were blocked with 3% BSA in PBS for 60 min and incubated with anti-phospho-AMPK (Thr172) antibody (1:2,000, Cell signaling), anti-AMPK antibody (1:2,000, Cell signaling), anti-Glut4 antibody (1:1,000, Millipore) or anti-actin antibody (1:5,000; Chemicon International) at 4° C. overnight followed by the corresponding secondary antibody for 1 h at room temperature (RT). Immunoreactive bands were detected by enhanced chemiluminescence (ECL; Pierce, Rockford, Ill., USA) and recorded using Kodakfilm (Rochester, N.Y., USA). The detected signals were scanned and then quantified by using TotalLab Quant software (TotalLab).

AMPK [2] = assay: AMPK activation assay (western blot phospho-AMPK Thr172) in Hep G2; type: cell-based, human; conditions: Hep G2 cells, 30 min treatment
Procedure: as §1

AMPK [3] = assay: AMPK activation assay (western blot phospho-AMPK Thr172) in C2C12; type: cell-based, mouse; conditions: C2C12 cells, 30 min treatment
Procedure: as §1

| Structure (SMILES) | AMPK activation (% to control) 3T3-L1 (AMPK [1]; 1 microM) | AMPK activation (% to control) 3T3-L1 (AMPK [1]; 10 microM) | AMPK activation (% to control) 3T3-L1 (AMPK [1]; 100 microM) | AMPK activation (% to control) 3T3-L1 (AMPK [1]; 200 microM) | AMPK activation (% to control) Hep G2 (AMPK [2]; 1 microM) | AMPK activation (% to control) Hep G2 (AMPK [2]; 10 microM) | AMPK activation (% to control) Hep G2 (AMPK [2]; 100 microM) | AMPK activation (% to control) Hep G2 (AMPK [2]; 200 microM) | AMPK activation (% to control) C2C12 (AMPK [3]; 1 microM) | AMPK activation (% to control) C2C12 (AMPK [3]; 10 microM) | AMPK activation (% to control) C2C12 (AMPK [3]; 100 microM) | AMPK activation (% to control) C2C12 (AMPK [3]; 200 microM) |
| --- | --- | --- | --- | --- | --- | --- | --- | --- | --- | --- | --- | --- |
| Nc1nc(F)nc2nc[nH]c12 [Example 2-fluoroadenine, 2-fluoroadenine] | 114 % to control | 165 % to control | 291 % to control | 323 % to control | 117 % to control | 180 % to control | 259 % to control | 315 % to control | 102 % to control | 112 % to control | 213 % to control | 303 % to control |
| Oc1nc(NCc2ccccc2)c2[nH]cnc2n1 [Example 2-hydroxy-6-benzylaminopurine, 2-hydroxy-6-benzylaminopurine] | 115 % to control | 126 % to control | 230 % to control | 309 % to control | 109 % to control | 137 % to control | 261 % to control | 338 % to control | 108 % to control | 135 % to control | 244 % to control | 356 % to control |
| Oc1nc(S)c2[nH]cnc2n1 [Example 2-hydroxy-6-mercaptopurine, 2-hydroxy-6-mercaptopurine] | 118 % to control | 122 % to control | 210 % to control | 277 % to control | 105 % to control | 108 % to control | 204 % to control | 222 % to control | 104 % to control | 109 % to control | 198 % to control | 251 % to control |
| CNc1nc(O)nc2nc[nH]c12 [Example 2-hydroxy-6-methylaminopurine, 2-hydroxy-6-methylaminopurine] | 113 % to control | 162 % to control | 271 % to control | 382 % to control | 115 % to control | 148 % to control | 266 % to control | 354 % to control | 118 % to control | 151 % to control | 255 % to control | 361 % to control |
| CCCNc1nc(O)nc2nc[nH]c12 [Example 2-hydroxy-6-propylaminopurine, 2-hydroxy-6-propylaminopurine] | 109 % to control | 129 % to control | 233 % to control | 361 % to control | 110 % to control | 133 % to control | 270 % to control | 339 % to control | 114 % to control | 122 % to control | 201 % to control | 324 % to control |
| Nc1nc(O)nc2nc[nH]c12 [Example 2-hydroxyadenine, 2-hydroxyadenine] | 117 % to control | 171 % to control | 264 % to control | 351 % to control | 118 % to control | 143 % to control | 220 % to control | 338 % to control | 111 % to control | 166 % to control | 275 % to control | 315 % to control |

Reference: patent publication US9938279B2, “Method for treating disease or condition susceptible to amelioration by AMPK activators and compounds of formula which are useful to activate AMP-activated protein kinase (AMPK)” (ENERGENESIS BIOMEDICAL CO., LTD, priority 2013, dated 2018)
